Measurements from ChEMBL document CHEMBL4507284, “Data for DCP probe BI-1230” (2021).

Columns and labels:
[1] = molecular target: Serine/threonine-protein kinase PRP4 homolog (Homo sapiens) (UniProt Q13523); settings: Compound concentration 1000.0 nM
[2] = molecular target: 5-hydroxytryptamine receptor 2C (Homo sapiens) (UniProt P28335); settings: Compound concentration 10.0 uM
[3] = molecular target: 5-hydroxytryptamine receptor 6 (Homo sapiens) (UniProt P50406); settings: Compound concentration 10.0 uM
Sequence of 5-hydroxytryptamine receptor 6 (Homo sapiens) (P50406 whole entry): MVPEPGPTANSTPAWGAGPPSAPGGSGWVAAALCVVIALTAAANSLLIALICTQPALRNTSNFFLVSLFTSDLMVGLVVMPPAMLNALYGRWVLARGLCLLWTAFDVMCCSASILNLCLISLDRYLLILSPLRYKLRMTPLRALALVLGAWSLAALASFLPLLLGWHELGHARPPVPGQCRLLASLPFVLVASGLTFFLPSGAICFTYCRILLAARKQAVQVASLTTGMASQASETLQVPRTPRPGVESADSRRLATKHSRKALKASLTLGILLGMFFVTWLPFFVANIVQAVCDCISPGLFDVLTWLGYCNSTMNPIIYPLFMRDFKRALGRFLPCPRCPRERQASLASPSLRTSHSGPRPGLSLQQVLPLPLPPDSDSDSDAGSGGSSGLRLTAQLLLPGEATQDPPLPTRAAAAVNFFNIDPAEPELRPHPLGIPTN

[4] = molecular target: 5-hydroxytryptamine receptor 3A (Homo sapiens) (UniProt P46098); settings: Compound concentration 10.0 uM
[5] = molecular target: 5-hydroxytryptamine receptor 7 (Homo sapiens) (UniProt P34969); settings: Compound concentration 10.0 uM
Sequence of 5-hydroxytryptamine receptor 7 (Homo sapiens) (P34969 whole entry): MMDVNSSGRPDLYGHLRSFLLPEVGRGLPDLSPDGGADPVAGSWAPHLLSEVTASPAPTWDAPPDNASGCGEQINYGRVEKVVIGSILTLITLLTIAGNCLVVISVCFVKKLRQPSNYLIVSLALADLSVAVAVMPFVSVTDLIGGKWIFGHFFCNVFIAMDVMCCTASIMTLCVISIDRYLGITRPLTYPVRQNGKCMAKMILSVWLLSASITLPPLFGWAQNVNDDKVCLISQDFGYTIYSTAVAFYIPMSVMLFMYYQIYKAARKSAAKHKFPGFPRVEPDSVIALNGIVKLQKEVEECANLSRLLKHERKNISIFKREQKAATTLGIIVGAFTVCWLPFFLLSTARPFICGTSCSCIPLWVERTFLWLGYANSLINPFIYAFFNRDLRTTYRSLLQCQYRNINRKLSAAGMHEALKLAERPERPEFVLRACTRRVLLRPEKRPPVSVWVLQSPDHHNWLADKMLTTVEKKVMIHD

[6] = molecular target: Histamine H3 receptor (Homo sapiens) (UniProt Q9Y5N1); settings: Compound concentration 10.0 uM
[7] = molecular target: Alpha-1B adrenergic receptor (Homo sapiens) (UniProt P35368); settings: Compound concentration 10.0 uM
Sequence of Alpha-1B adrenergic receptor (Homo sapiens) (P35368 whole entry): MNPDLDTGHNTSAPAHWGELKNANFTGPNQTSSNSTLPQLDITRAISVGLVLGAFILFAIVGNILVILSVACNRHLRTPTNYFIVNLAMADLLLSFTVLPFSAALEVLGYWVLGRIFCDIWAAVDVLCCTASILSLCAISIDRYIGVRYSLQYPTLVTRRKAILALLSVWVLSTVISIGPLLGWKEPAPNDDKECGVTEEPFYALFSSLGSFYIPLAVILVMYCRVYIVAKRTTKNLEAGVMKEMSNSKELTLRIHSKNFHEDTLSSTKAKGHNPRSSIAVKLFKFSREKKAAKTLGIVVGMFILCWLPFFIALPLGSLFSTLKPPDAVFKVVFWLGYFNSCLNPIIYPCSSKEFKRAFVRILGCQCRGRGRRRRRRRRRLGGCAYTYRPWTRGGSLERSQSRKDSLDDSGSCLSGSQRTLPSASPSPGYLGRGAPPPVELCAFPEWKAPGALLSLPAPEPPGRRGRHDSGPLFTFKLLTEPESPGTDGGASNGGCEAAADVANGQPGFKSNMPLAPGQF

[8] = molecular target: GABA-A receptor; anion channel (Rattus norvegicus) (UniProt O09028+P15431+P18506+P18508+P19969+P20236+P23574+P23576+P28471+P28473+P30191+P62813+P63079+P63138+Q91ZM7+Q9ES14); settings: Compound concentration 10.0 uM
[9] = molecular target: MAP kinase-interacting serine/threonine-protein kinase 2 (Homo sapiens) (UniProt Q9HBH9); settings: Compound concentration 1000.0 nM
Sequence of MAP kinase-interacting serine/threonine-protein kinase 2 (Homo sapiens) (Q9HBH9 whole entry, looked up): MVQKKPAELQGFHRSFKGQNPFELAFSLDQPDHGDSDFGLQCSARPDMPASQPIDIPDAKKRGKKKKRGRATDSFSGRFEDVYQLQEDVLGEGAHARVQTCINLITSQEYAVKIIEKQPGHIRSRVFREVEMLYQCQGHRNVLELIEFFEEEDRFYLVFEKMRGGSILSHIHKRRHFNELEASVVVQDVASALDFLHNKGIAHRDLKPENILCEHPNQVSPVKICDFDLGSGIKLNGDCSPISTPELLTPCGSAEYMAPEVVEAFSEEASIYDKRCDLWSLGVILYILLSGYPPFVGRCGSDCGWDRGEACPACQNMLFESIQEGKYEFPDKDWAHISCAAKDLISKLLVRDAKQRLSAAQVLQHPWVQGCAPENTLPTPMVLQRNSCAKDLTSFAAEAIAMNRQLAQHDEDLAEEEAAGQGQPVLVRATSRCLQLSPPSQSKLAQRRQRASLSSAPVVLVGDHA

[10] = molecular target: Dipeptidyl peptidase 4 (Homo sapiens) (UniProt P27487); test: Dipeptidyl peptidase IV (h) (DPP-IV) Eurofins-Cerep enzyme and uptake assay; settings: Compound concentration 10.0 uM
[11] = molecular target: Alpha-1D adrenergic receptor (Homo sapiens) (UniProt P25100); settings: Compound concentration 10.0 uM
[12] = molecular target: D(2) dopamine receptor (Homo sapiens) (UniProt P14416); settings: Compound concentration 10.0 uM
[13] = molecular target: Tryptase (Homo sapiens) (UniProt Q9BZJ3+Q15661+Q9NRR2); test: Tryptase (h) Eurofins-Cerep enzyme and uptake assay; type: protein assay; settings: Compound concentration 10.0 uM
[14] = molecular target: Protease (Human immunodeficiency virus 1) (UniProt Q9YQ12); test: HIV-1 protease Eurofins-Cerep enzyme and uptake assay; settings: Compound concentration 10.0 uM
[15] = molecular target: Cathepsin S (Homo sapiens) (UniProt P25774); test: Cathepsin S (h) Eurofins-Cerep enzyme and uptake assay; settings: Compound concentration 10.0 uM
[16] = molecular target: Cathepsin Z (Homo sapiens) (UniProt Q9UBR2); test: Cathepsin X (h) Eurofins-Cerep enzyme and uptake assay; settings: Compound concentration 10.0 uM
[17] = molecular target: Caspase-3 (Homo sapiens) (UniProt P42574); test: Caspase-3 (h) Eurofins-Cerep enzyme and uptake assay; settings: Compound concentration 10.0 uM
[18] = molecular target: Chymase (Homo sapiens) (UniProt P23946); test: Chymase (h) Eurofins-Cerep enzyme and uptake assay; settings: Compound concentration 10.0 uM
[19] = molecular target: Caspase-2 (Homo sapiens) (UniProt P42575); test: Caspase-2 (h) Eurofins-Cerep enzyme and uptake assay; settings: Compound concentration 10.0 uM
[20] = molecular target: Matrix metalloproteinase-14 (Homo sapiens) (UniProt P50281); test: MT1-MMP (h) (MMP-14) Eurofins-Cerep enzyme and uptake assay; settings: Compound concentration 10.0 uM
[21] = molecular target: Stromelysin-1 (Homo sapiens) (UniProt P08254); test: MMP-3 (h) Eurofins-Cerep enzyme and uptake assay; settings: Compound concentration 10.0 uM
[22] = molecular target: Prothrombin (Homo sapiens) (UniProt P00734); test: Thrombin(h) Eurofins-Cerep enzyme and uptake assay; settings: Compound concentration 10.0 uM
[23] = molecular target: Caspase-6 (Homo sapiens) (UniProt P55212); test: Caspase-6 (h) Eurofins-Cerep enzyme and uptake assay; settings: Compound concentration 10.0 uM
[24] = molecular target: Caspase-1 (Homo sapiens) (UniProt P29466); test: Caspase-1 (h) Eurofins-Cerep enzyme and uptake assay; settings: Compound concentration 10.0 uM
[25] = molecular target: Neutrophil collagenase (Homo sapiens) (UniProt P22894); test: MMP-8 (h) Eurofins-Cerep enzyme and uptake assay; settings: Compound concentration 10.0 uM
[26] = molecular target: 72 kDa type IV collagenase (Homo sapiens) (UniProt P08253); test: MMP-2 (h) Eurofins-Cerep enzyme and uptake assay; settings: Compound concentration 10.0 uM
[27] = molecular target: Procathepsin L (Homo sapiens) (UniProt P07711); test: Cathepsin L (h) Eurofins-Cerep enzyme and uptake assay; settings: Compound concentration 10.0 uM
[28] = molecular target: Kappa-type opioid receptor (Homo sapiens) (UniProt P41145); settings: Compound concentration 10.0 uM
[29] = molecular target: Beta-1 adrenergic receptor (Homo sapiens) (UniProt P08588); settings: Compound concentration 10.0 uM
[30] = molecular target: Disintegrin and metalloproteinase domain-containing protein 17 (Homo sapiens) (UniProt P78536); test: TACE (h) Eurofins-Cerep enzyme and uptake assay; settings: Compound concentration 10.0 uM
Sequence of Disintegrin and metalloproteinase domain-containing protein 17 (Homo sapiens) (P78536 whole entry, the tested form may be a part): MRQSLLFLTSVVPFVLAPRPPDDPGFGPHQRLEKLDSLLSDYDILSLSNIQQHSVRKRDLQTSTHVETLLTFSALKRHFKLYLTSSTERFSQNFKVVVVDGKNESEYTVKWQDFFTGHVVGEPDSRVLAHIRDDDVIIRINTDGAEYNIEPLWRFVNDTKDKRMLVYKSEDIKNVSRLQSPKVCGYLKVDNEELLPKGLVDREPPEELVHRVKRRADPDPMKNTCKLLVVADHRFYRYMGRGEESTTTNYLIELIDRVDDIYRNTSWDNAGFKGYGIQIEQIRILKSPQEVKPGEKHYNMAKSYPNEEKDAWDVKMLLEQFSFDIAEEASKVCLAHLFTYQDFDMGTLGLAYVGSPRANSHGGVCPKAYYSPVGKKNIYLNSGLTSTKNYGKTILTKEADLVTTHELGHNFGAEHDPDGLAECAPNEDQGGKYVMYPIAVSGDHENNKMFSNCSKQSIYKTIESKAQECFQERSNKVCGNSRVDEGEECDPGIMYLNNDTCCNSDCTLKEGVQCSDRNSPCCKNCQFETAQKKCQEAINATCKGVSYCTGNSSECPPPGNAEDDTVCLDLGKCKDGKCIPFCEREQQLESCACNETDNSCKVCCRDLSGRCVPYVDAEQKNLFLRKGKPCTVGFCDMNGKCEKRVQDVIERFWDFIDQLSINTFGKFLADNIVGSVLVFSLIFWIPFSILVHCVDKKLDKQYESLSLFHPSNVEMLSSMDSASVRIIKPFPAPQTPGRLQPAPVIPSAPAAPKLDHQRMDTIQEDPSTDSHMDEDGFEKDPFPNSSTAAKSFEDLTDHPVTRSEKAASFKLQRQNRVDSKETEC

[31] = molecular target: Caspase-8 (Homo sapiens) (UniProt Q14790); test: Caspase-8 (h) Eurofins-Cerep enzyme and uptake assay; settings: Compound concentration 10.0 uM
[32] = molecular target: Caspase-7 (Homo sapiens) (UniProt P55210); test: Caspase-7 (h) Eurofins-Cerep enzyme and uptake assay; settings: Compound concentration 10.0 uM
[33] = molecular target: Cathepsin G (Homo sapiens) (UniProt P08311); test: Cathepsin G (h) Eurofins-Cerep enzyme and uptake assay; settings: Compound concentration 10.0 uM
[34] = molecular target: Beta-3 adrenergic receptor (Homo sapiens, UniProt P13945); test: GPCRScan assay: inhibition of Beta3; set-up: radioligand conc. used [nm] 0.2 – 0.5, parental cells HEK Flp-In
[35] = molecular target: Alpha-2B adrenergic receptor (Homo sapiens, UniProt P18089); test: GPCRScan assay: inhibition of Alpha2B; set-up: radioligand conc. used [nm] 1.5 – 2.0, parental cells HEKT
Sequence of Alpha-2B adrenergic receptor (P18089 whole entry): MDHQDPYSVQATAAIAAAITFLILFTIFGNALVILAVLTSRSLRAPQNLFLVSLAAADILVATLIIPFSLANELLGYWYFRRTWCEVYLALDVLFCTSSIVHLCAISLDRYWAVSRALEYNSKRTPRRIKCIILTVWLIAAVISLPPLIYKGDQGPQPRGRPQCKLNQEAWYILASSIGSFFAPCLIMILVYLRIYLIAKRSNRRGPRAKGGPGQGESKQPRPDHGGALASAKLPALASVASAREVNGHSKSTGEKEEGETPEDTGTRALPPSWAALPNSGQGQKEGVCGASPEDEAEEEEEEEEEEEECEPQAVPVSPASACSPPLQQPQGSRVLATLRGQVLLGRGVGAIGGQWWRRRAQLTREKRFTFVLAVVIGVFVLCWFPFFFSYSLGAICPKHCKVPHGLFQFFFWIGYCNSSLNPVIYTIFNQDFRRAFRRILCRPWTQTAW

[36] = molecular target: Caspase-10 (Homo sapiens) (UniProt Q92851); test: Caspase-10 (h) Eurofins-Cerep enzyme and uptake assay; settings: Compound concentration 10.0 uM
[37] = molecular target: Neutrophil elastase (Homo sapiens) (UniProt P08246); test: Elastase (h) Eurofins-Cerep enzyme and uptake assay; settings: Compound concentration 10.0 uM
Sequence of Neutrophil elastase (Homo sapiens) (P08246 whole entry): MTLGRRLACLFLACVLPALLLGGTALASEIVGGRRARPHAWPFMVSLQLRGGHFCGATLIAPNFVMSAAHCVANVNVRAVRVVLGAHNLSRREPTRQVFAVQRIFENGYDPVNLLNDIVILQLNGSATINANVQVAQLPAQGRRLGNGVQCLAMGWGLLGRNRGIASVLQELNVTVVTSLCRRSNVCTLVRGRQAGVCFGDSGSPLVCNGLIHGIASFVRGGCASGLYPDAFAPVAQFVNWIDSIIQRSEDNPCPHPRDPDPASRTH

[38] = molecular target: Collagenase 3 (Homo sapiens) (UniProt P45452); test: MMP-13 (h) Eurofins-Cerep enzyme and uptake assay; settings: Compound concentration 10.0 uM
[39] = molecular target: Matrilysin (Homo sapiens) (UniProt P09237); test: MMP-7 (h) Eurofins-Cerep enzyme and uptake assay; settings: Compound concentration 10.0 uM
[40] = molecular target: Cathepsin D (Homo sapiens) (UniProt P07339); test: Cathepsin D (h) Eurofins-Cerep enzyme and uptake assay; settings: Compound concentration 10.0 uM
[41] = molecular target: Angiotensin-converting enzyme (Homo sapiens) (UniProt P12821); test: ACE (h) Eurofins-Cerep enzyme and uptake assay; settings: Compound concentration 10.0 uM
[42] = molecular target: Beta-secretase 1 (Homo sapiens) (UniProt P56817); test: BACE-1 (h) (β-secretase) Eurofins-Cerep enzyme and uptake assay; settings: Compound concentration 10.0 uM
[43] = molecular target: Trypsin (Homo sapiens) (UniProt P07477+P07478+P35030); test: Trypsin (h) Eurofins-Cerep enzyme and uptake assay; type: protein assay; settings: Compound concentration 10.0 uM
[44] = molecular target: Alpha-2C adrenergic receptor (Homo sapiens, UniProt P18825); test: GPCRScan assay: inhibition of Alpha2C; set-up: radioligand conc. used [nm] 0.5 – 1.0, parental cells stable MDCK
Sequence of Alpha-2C adrenergic receptor (P18825 whole entry): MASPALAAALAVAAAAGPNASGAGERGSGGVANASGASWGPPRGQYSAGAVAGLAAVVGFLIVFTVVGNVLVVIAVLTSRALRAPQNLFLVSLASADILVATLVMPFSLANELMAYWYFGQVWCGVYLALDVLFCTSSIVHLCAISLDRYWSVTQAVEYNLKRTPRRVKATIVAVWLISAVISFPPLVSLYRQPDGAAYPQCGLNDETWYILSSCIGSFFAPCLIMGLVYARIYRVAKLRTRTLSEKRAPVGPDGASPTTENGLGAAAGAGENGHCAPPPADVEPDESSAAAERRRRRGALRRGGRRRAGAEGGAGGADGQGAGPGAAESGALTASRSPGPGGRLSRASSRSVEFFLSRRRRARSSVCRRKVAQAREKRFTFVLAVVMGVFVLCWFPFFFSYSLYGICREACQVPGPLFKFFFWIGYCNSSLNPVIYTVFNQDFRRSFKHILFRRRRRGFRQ

[45] = molecular target: Cathepsin E (Homo sapiens) (UniProt P14091); test: Cathepsin E Eurofins-Cerep enzyme and uptake assay; settings: Mus musculus; Compound concentration 10.0 uM
[46] = molecular target: Sodium-dependent dopamine transporter (Homo sapiens) (UniProt Q01959); settings: Compound concentration 10.0 uM
[47] = molecular target: 5-hydroxytryptamine receptor 1A (Homo sapiens) (UniProt P08908); settings: Compound concentration 10.0 uM

Sequence of Serine/threonine-protein kinase PRP4 homolog (Homo sapiens) (Q13523 whole entry): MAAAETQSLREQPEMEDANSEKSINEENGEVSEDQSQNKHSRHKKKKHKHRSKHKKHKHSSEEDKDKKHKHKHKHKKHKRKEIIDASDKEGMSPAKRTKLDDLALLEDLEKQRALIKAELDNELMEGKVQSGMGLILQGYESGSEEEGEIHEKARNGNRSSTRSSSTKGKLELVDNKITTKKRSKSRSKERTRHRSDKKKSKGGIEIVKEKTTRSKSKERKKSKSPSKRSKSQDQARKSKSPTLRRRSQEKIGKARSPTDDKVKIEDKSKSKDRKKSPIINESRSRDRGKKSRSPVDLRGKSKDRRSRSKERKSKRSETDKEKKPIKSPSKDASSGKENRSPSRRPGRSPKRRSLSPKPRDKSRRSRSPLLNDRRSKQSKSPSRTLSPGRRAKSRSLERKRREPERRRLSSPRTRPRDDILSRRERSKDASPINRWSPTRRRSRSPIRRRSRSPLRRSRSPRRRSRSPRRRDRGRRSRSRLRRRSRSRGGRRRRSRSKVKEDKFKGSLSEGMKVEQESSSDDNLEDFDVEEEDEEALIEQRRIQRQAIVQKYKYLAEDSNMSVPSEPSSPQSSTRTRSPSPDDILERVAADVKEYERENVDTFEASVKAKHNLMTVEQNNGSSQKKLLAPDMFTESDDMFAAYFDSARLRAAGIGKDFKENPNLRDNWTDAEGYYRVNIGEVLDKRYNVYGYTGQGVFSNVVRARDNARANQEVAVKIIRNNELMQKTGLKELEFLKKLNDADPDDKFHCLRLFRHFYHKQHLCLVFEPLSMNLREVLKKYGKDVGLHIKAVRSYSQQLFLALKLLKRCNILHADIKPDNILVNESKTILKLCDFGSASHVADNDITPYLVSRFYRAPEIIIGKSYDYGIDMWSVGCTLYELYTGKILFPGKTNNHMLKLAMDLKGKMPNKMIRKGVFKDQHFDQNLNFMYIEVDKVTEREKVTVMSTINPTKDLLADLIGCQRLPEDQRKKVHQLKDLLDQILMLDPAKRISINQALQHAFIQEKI

`O=C(N[C@H]1CCCCC/C=C\C2C[C@@]2(C(=O)O)NC(=O)[C@@H]2C[C@@H](Oc3ccncc3)CN2C1=O)OC1CCCC1` (stereo not given in full) [BI 1675] gave a residual activity [1] of 92%, an inhibition [2] of 7.99% and an inhibition [3] of -7.71%. It also gave an inhibition [4] of -8.48%, an inhibition [5] of -3.24% and an inhibition [6] of 2.64%. For the same molecule, the inhibition [7] was -7.2%, the inhibition [8] was -5.88% and the residual activity [9] was 75%.

In the case of `COc1ccc2c(O[C@@H]3C[C@H]4C(=O)N[C@]5(C(=O)O)CC5/C=C\CCCCC[C@H](NC(=O)OC5CCCC5)C(=O)N4C3)cc(-c3csc(NC(=O)C(C)C)n3)nc2c1C` (stereo not given in full) [BI 1230], the % Inhibition of Control Values [10] is reported as 4%, the inhibition [11] is reported as 20.5% and the inhibition [12] is reported as 4.88%. The % Inhibition of Control Values [13] was 6.9%, the % Inhibition of Control Values [14] was 48.2% and the % Inhibition of Control Values [15] was 27%. The % Inhibition of Control Values [16] was 12.3%, the % Inhibition of Control Values [17] was 23.8% and the % Inhibition of Control Values [18] was 21.2%. The residual activity [1] was 93%, the % Inhibition of Control Values [19] was 44.5% and the % Inhibition of Control Values [20] was 59.2%. It also gave a % Inhibition of Control Values [21] of 28%, a % Inhibition of Control Values [22] of 3.5% and a % Inhibition of Control Values [23] of 10.3%. The % Inhibition of Control Values [24] was -23.1%, the % Inhibition of Control Values [25] was 125% and the % Inhibition of Control Values [26] was 54.8%. It also gave a % Inhibition of Control Values [27] of 13.6%, an inhibition [28] of 18.1% and an inhibition [29] of 2.05%. The % Inhibition of Control Values [30] was 63.7%, the % Inhibition of Control Values [31] was -6.2% and the % Inhibition of Control Values [32] was 40.6%. For the same molecule, the % Inhibition of Control Values [33] was 63%, the Ki [34] was 3.62 µM and the Ki [35] was 4.49 µM. It also gave a % Inhibition of Control Values [36] of 38.2%, a % Inhibition of Control Values [37] of 9.7% and a % Inhibition of Control Values [38] of 281%. The % Inhibition of Control Values [39] was 23.4%, the % Inhibition of Control Values [40] was -2.2% and the % Inhibition of Control Values [41] was 2.6%. For the same molecule, the % Inhibition of Control Values [42] was 90.6%, the % Inhibition of Control Values [43] was 29.8% and the residual activity [9] was 70%. The Ki ([44]; read-out: Ki) was 3.29 µM, the Ki ([44]; read-out: pKi (converted)) was 3.24 µM and the % Inhibition of Control Values [45] was -16.8%. It also gave an inhibition [46] of 17.4% and an inhibition [47] of -6.16%.
